Test results from patent publication US7799821B2, “Therapeutic compounds” (Allergan, Inc., priority 2004, dated 2010).
pEC50, pIC50: −log10 of the molar value. Where two headings read alike, the source gives them in different places.

Columns and labels:
hEP2/Gqs5 = molecular target: T1, hEP2/Gqs5 (Homo sapiens, UniProt P43116); assay: FLIPR calcium signal, hEP2; assay type: cell-based
T1 construct: expressed in transfected cells; host or cells: HEK-293(EBNA)
Protocol: (§1) HEK-293(EBNA) cells, stably expressing one type or subtype of recombinant human prostaglandin receptors (prostaglandin receptors expressed: hDP/Gqs5; hEP1; hEP2/Gqs5; hEP3A/Gqi5; hEP4/Gqs5; hFP; hIP; hTP), were cultured in 100 mm culture dishes in high-glucose DMEM medium containing 10% fetal bovine serum, 2 mM 1-glutamine, 250 μg/ml geneticin (G418) and 200 μg/ml hygromycin B as selection markers, and 100 units/ml penicillin G, 100 μg/ml streptomycin and 0.25 μg/ml amphotericin B. • (b) Calcium Signal Studies on the FLIPR™
(§2) Cells were seeded at a density of 5×10^4 cells per well in Biocoat® Poly-D-lysine-coated black-wall, clear-bottom 96-well plates (Becton-Dickinson) and allowed to attach overnight in an incubator at 37° C. Cells were then washed two times with HBSS-HEPES buffer (Hanks Balanced Salt Solution without bicarbonate and phenol red, 20 mM HEPES, pH 7.4) using a Denley Cellwash plate washer (Labsystems). After 45 minutes of dye-loading in the dark, using the calcium-sensitive dye Fluo-4 AM at a final concentration of 2 μM, plates were washed four times with HBSS-HEPES buffer to remove excess dye leaving 100 μl in each well. Plates were re-equilibrated to 37° C. for a few minutes.
(§3) Cells were excited with an Argon laser at 488 nm, and emission was measured through a 510-570 nm bandwidth emission filter (FLIPR™, Molecular Devices, Sunnyvale, Calif.). Drug solution was added in a 50 μl volume to each well to give the desired final concentration. The peak increase in fluorescence intensity was recorded for each well. On each plate, four wells each served as negative (HBSS-HEPES buffer) and positive controls (standard agonists: BW245C (hDP); PGE2 (hEP1; hEP2/Gqs5; hEP3A/Gqi5; hEP4/Gqs5); PGF2α (hFP); carbacyclin (hIP); U-46619 (hTP), depending on receptor). The peak fluorescence change in each drug-containing well was then expressed relative to the controls.
(§4) Compounds were tested in a high-throughput (HTS) or concentration-response (CoRe) format. In the HTS format, forty-four compounds per plate were examined in duplicates at a concentration of 10^−5 M. To generate concentration-response curves, four compounds per plate were tested in duplicates in a concentration range between 10^−5 and 10^−11 M. The duplicate values were averaged. In either, HTS or CoRe format each compound was tested on at least 3 separate plates using cells from different passages to give an n≧3.

hEP4/Gqs5 = molecular target: T2, hEP4/Gqs5 (Homo sapiens, UniProt P35408); assay: FLIPR calcium signal, hEP4; assay type: cell-based
T2 construct: expressed in transfected cells; host or cells: HEK-293(EBNA)
T2 sequence (P35408 whole entry): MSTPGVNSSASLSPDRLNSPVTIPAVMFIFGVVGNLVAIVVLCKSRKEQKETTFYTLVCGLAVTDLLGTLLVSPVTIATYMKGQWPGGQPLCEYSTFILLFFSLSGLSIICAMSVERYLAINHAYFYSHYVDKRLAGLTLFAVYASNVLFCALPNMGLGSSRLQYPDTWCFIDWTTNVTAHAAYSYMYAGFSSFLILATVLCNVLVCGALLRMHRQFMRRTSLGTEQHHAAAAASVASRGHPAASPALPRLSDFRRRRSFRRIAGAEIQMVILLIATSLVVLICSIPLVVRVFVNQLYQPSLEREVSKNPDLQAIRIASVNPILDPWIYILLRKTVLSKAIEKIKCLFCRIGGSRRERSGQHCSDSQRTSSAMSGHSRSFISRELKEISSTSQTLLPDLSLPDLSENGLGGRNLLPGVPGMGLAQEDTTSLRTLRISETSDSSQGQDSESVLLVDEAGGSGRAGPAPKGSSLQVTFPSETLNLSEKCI
Protocol: as §1, §2, §3, §4

human EP2 receptors = molecular target: T3, human EP2 receptors (Homo sapiens, UniProt P43116); assay: Competition radioligand binding ([3H]PGE2), EP2; details: read-out: BINDING IC50 HEP2
T3 construct: expressed in transfected cells; host or cells: HEK 293
T3 sequence (P43116 whole entry): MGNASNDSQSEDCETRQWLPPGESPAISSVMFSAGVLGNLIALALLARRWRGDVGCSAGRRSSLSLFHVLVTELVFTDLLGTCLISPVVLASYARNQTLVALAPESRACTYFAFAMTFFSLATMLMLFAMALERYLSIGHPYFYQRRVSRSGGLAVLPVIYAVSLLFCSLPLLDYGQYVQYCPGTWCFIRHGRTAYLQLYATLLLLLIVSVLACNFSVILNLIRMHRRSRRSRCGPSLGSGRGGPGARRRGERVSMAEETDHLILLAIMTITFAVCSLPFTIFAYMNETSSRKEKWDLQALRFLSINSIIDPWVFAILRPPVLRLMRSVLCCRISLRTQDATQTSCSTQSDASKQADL
Protocol: Competition binding experiments were performed in a medium containing Hank's balanced salt solution, […], membranes (˜60 μg protein) or 2×10^5 cells from HEK 293 cells stably expressing human EP2 receptors, [^3H]PGE2 (10 nM) and various concentrations of test compounds in a total volume of 300 μl. Reaction mixtures were incubated at 23° C. for 60 min, and were filtered over Whatman GF/B filters under vacuum. Filters were washed three times with 5 ml ice-cold buffer containing 50 mM Tris/HCl (pH 7.3). Non-specific binding was estimated in the presence of excess unlabeled PGE2 (10 μM). Binding data fitted to the binding model for a single class of binding sites, using nonlinear regression analysis. IC50 values thus obtained were converted to Ki using the equation of Ki=(IC50/(1+[L]/KD) where [L] represents PGE2 concentration (10 nM) and KD the dissociation constant for [^3H]PGE2 at human EP2 receptors (40 nM).
HEK-293 cells stably expressing the human or feline FP receptor, or EP1, EP2, or EP4 receptors were washed with TME buffer, scraped from the bottom of the flasks, and homogenized for 30 sec using a Brinkman PT 10/35 polytron. TME buffer was added to achieve a final 40 ml volume in the centrifuge tubes (the composition of TME is 100 mM TRIS base, 20 mM MgCl2, […]; 10N HCl is added to achieve a pH of 7.4).
The cell homogenate was centrifuged at 19000 r.p.m. for 20 min at 4° C. using a Beckman Ti-60 rotor. The resultant pellet was resuspended in TME buffer to give a final 1 mg/ml protein concentration, as determined by Biorad assay. Radioligand binding competition assays vs. [^3H-]17 —phenyl PGF2α (5 nM) were performed in a 100 μl volume for 60 min. Binding reactions were started by adding plasma membrane fraction. The reaction was terminated by the addition of 4 ml ice-cold TRIS-HCl buffer and rapid filtration through glass fiber GF/B filters using a Brandel cell harvester. The filters were washed 3 times with ice-cold buffer and oven dried for one hour.
[^3H-] PGE2 (specific activity 180 Ci mmol) was used as the radioligand for EP receptors. [^3H] 17-phenyl PGF2α was employed for FP receptor binding studies. Binding studies employing EP1, EP2, EP4 and FP receptors were performed in duplicate in at least three separate experiments. A 200 μl assay volume was used. Incubations were for 60 min at 25° C. and were terminated by the addition of 4 ml of ice-cold 50 mM TRIS-HCl, followed by rapid filtration through Whatman GF/B filters and three additional 4 ml washes in a cell harvester (Brandel). Competition studies were performed using a final concentration of 5 nM [^3H]—PGE2, or 5 nM [^3H] 17-phenyl PGF2α and non-specific binding determined with 10^−5M of unlabeled PGE2, or 17-phenyl PGF2α, according to receptor subtype studied.

[1] = FLIPR Ca2+ signal, HEK-293(EBNA), read-out: FUNCTIONAL EC50 HEP2
[2] = FLIPR Ca2+ signal, HEK-293(EBNA), read-out: FUNCTIONAL EC50 HEP4
[3] = read-out: FUNCTIONAL Ca2+ EC50 HEP2
[4] = read-out: FUNCTIONAL Ca2+ EC50 HEP4

T1 sequence (P43116 whole entry): as above

| SMILES | pEC50 (hEP2/Gqs5; [1]) | also measured |
| --- | --- | --- |
| COC(=O)CCCCCC[C@H]1C(=O)C[C@@H](O)[C@@H]1c1ccc(C(O)C2CCCCC2)cc1 (stereo partly shown) | < 5.00 | – |
| COC(=O)CCCCCC[C@@H]1[C@@H](c2ccc(CO)cc2)[C@H](O)C[C@H]1Cl | – | pEC50 (hEP4/Gqs5; [2]): < 5.00 |
| CCCC1([C@@H](O)c2ccc([C@H]3CCC(=O)[C@@H]3C/C=C\CCCC(=O)O)cc2)CCC1 [drawing 194] | – | pEC50 (hEP2/Gqs5; [3]): < 5.00; pEC50 (hEP4/Gqs5; [4]): < 5.00 |
| CCCC1(C(O)c2ccc([C@@H]3[C@@H](C/C=C\CCCC(=O)O)[C@H](Cl)C[C@H]3O)cc2)CCC1 (stereo partly shown) | 5.64 | – |
| COC(=O)CCC/C=C\C[C@@H]1[C@@H](c2ccc(CO)cc2)[C@H](O)C[C@H]1Cl | < 5.00 | – |
| O=C(O)CCCCCC[C@@H]1[C@@H](c2ccc(CO)cc2)[C@H](O)C[C@H]1Cl | < 5.00 | – |
| O=C(O)CCCCCC[C@H]1C(=O)CC[C@@H]1c1ccc(C2(O)CCC2)cc1 | – | pEC50 (hEP2/Gqs5; [3]): < 5.00 |
| CCCC1(C(O)c2cccc([C@@H]3[C@@H](Cc4cccc(OCC(=O)O)c4)[C@H](Cl)C[C@H]3O)c2)CCC1 (stereo partly shown) | 6.58 | pIC50 (human EP2 receptors): 5.28 |
| CC(C)(CO)c1ccc([C@@H]2[C@@H](C/C=C\CCCC(=O)O)[C@H](Cl)C[C@H]2O)cc1 [drawing 114] | < 5.00 | – |
| O=C(O)COCCCC[C@@H]1[C@@H](c2ccc(C(O)C3CCCCC3)cc2)[C@H](O)C[C@H]1Cl (stereo partly shown) | 4.68 | – |
| O=C(O)COC/C=C\C[C@@H]1[C@@H](c2ccc(C(O)C3CCCCC3)cc2)[C@H](O)C[C@H]1Cl (stereo partly shown) | 5.42 | – |
| O=C(O)CCCCCC[C@H]1C(=O)C[C@@H](O)[C@@H]1c1ccc(C(O)C2CCCCC2)cc1 (stereo partly shown) | 6.35 | – |
| COC(=O)CCC/C=C\C[C@@H]1[C@@H](c2ccc(C(C)(C)CO)cc2)[C@H](O)C[C@H]1Cl [drawing 113] | – | pEC50 (hEP4/Gqs5; [2]): < 5.00 |
| CCCC1(C(O)c2ccc([C@H]3[C@H](O)CC(=O)[C@@H]3CCCCCCC(=O)O)cc2)CCC1 (stereo partly shown) | 6.20 | – |
| O=C(O)CCCCCC[C@@H]1[C@@H](c2ccc(C(O)C3CCCCC3)cc2)[C@H](O)C[C@H]1Cl (stereo partly shown) | 5.55 | – |
| CCCC1(C(O)c2ccc([C@H]3[C@H](O)CC(=O)[C@@H]3CCCCCCC(=O)OC)cc2)CCC1 (stereo partly shown) | < 5.00 | – |
| CC(C)(CO)c1ccc([C@H]2[C@H](O)CC(=O)[C@@H]2CCCCCCC(=O)O)cc1 | 6.28 | pIC50 (human EP2 receptors): 4.73 |
| COC(=O)CCC/C=C\C[C@@H]1[C@@H](c2ccc(C(C)(C)CO)cc2)[C@H](O)C[C@H]1Cl [drawing 117] | < 5.00 | pIC50 (human EP2 receptors): 4.31 |
| CC(C)(CO)c1ccc([C@@H]2[C@@H](C/C=C\CCCC(=O)O)[C@H](Cl)C[C@H]2O)cc1 [drawing 118] | 6.76 | pIC50 (human EP2 receptors): 5.38 |
| COC(=O)CCCCCC[C@@H]1[C@@H](c2ccc(C(O)C(C)C)cc2)[C@H](O)C[C@H]1Cl (stereo partly shown) | < 5.00 | pEC50 (hEP4/Gqs5; [2]): < 5.00 |

| SMILES | pEC50 (hEP2/Gqs5; [1]) | also measured |
| --- | --- | --- |
| COC(=O)CCC/C=C\C[C@H]1C(=O)CC[C@@H]1c1ccc([C@H](O)C2CCCCC2)cc1 | – | pEC50 (hEP2/Gqs5; [3]): < 5.00 |
| COC(=O)CCC/C=C\C[C@@H]1[C@@H](c2ccc(C(O)C(C)C)cc2)[C@H](O)C[C@H]1Cl (stereo partly shown) | < 5.00 | pEC50 (hEP4/Gqs5; [2]): < 5.00 |
| O=C(O)CCC/C=C\C[C@H]1C(=O)C[C@@H](O)[C@@H]1c1ccc(C2(O)CCC2)cc1 | < 5.00 | – |
| COC(=O)CCC/C=C\C[C@H]1C(=O)C[C@@H](O)[C@@H]1c1ccc(C(O)C2CCCCC2)cc1 (stereo partly shown) | < 5.00 | pEC50 (hEP4/Gqs5; [2]): < 5.00 |
| COC(=O)CCCCCC[C@@H]1[C@@H](c2ccc(C(O)C(C)(C)C)cc2)[C@H](O)C[C@H]1Cl (stereo partly shown) [drawing 133] | 5.18 | pEC50 (hEP4/Gqs5; [2]): < 5.00 |
| O=C(O)CCC/C=C\C[C@@H]1[C@@H](c2ccc(CO)cc2)[C@H](O)C[C@H]1Cl | – | pIC50 (human EP2 receptors): 4.88 |
| COC(=O)CCCCCC[C@@H]1[C@@H](c2ccc(C(C)(C)C)cc2)[C@H](O)C[C@H]1Cl | < 5.00 | – |
| CCCC1(C(O)c2ccc([C@@H]3[C@@H](CCCCCCC(=O)O)[C@H](Cl)C[C@H]3O)cc2)CCC1 (stereo partly shown) | 6.26 | – |
| O=C(O)CCC/C=C\C[C@H]1C(=O)C[C@@H](O)[C@@H]1c1ccc(C(O)C2CCCCC2)cc1 (stereo partly shown) | < 5.00 | – |
| COC(=O)CCCCCC[C@@H]1[C@@H](c2ccc(C(O)C(C)(C)C)cc2)[C@H](O)C[C@H]1Cl (stereo partly shown) [drawing 131] | 5.30 | pEC50 (hEP4/Gqs5; [2]): < 5.00 |
| COC(=O)CCC/C=C\C[C@@H]1[C@@H](c2ccc(C3(O)CCC3)cc2)[C@H](O)C[C@H]1Cl | < 5.00 | – |
| O=C(O)COCC#CCC1[C@H](Cl)C[C@@H](O)[C@@H]1c1ccc(C(O)C2CCCCC2)cc1 (stereo partly shown) | 5.81 | – |
| COC(=O)CCCCCC[C@@H]1[C@@H](c2ccc(C(C)(C)CO)cc2)[C@H](O)C[C@H]1Cl [drawing 115] | < 5.00 | pEC50 (hEP4/Gqs5; [2]): 4.58 |
| O=C(O)CCC/C=C\C[C@H]1C(=O)C[C@@H](O)[C@@H]1c1ccc2c(c1)CCC2O (stereo partly shown) | 6.39 | pIC50 (human EP2 receptors): 5.64 |
| CCCC1(C(O)c2cccc([C@H]3[C@H](O)CC(=O)[C@@H]3CCCCCCC(=O)O)c2)CCC1 (stereo partly shown) | 5.28 | – |
| O=C(O)CCC/C=C\C[C@@H]1[C@@H](c2ccc(C(O)C3CCCCC3)cc2)[C@H](O)C[C@H]1Cl (stereo partly shown) [drawing 77] | 6.41 | – |
| CCCC1(C(O)c2ccc([C@H]3[C@H](O)CC(=O)[C@@H]3C/C=C\CCCC(=O)O)cc2)CCC1 (stereo partly shown) | 5.43 | – |
| CCCC1(C(O)c2ccc([C@@H]3[C@@H](C/C=C\CCCC(=O)OC)[C@H](Cl)C[C@H]3O)cc2)CCC1 (stereo partly shown) | < 5.00 | – |
| CCCCCC(O)c1ccc([C@H]2CCC(=O)[C@@H]2CCCc2ccc(C(=O)O)s2)cc1 (stereo partly shown) | – | pEC50 (hEP4/Gqs5; [4]): < 5.00 |
| COC(=O)CCCCCC[C@H]1C(=O)C[C@@H](O)[C@@H]1c1ccc(C)cc1 | < 5.00 | – |
